Assays:
[1] = test system: PARP1/2; details: disclosed in WO2013/097225A1; cited from earlier work
[2] = test system: non-BRCA1/2-mutated cancers; details: cited from earlier work
[3] = test system: locally advanced or metastatic solid tumors; format: in vivo
Procedure: This dose-escalation/expansion study is enrolling pts using a modified 3+3 design to establish the safety and MTD of Compound B plus TMZ. During dose escalation, pts receive Compound B plus escalating doses of TMZ QD on Days 1-7 (Arm A) or continuously (Arm B) of each 28-day cycle. In Arm A and Arm B: Compound B was administered at the doses of 60 mg PO BID; TMZ was administered at 20 mg, 40 mg, 80 mg, 120 mg QD corresponds to 12 mg/m^2, 23 mg/m^2, 46 mg/m^2and 69 mg/m^2assuming an average body surface area of 1.73 m^2, respectively will be administered PO QD.
The primary endpoint is safety/tolerability, including estimation of MTD and RP2D. Key secondary endpoints are PK profiles of TMZ and Compound B and antitumor activity (RECIST v1.1) of combination treatment; biomarker (eg, gBRCA) assessment is exploratory.

[4] = test system: MDA-MB-436 breast cancer; test: BRCA1-mutant mouse xenograft model (MDA-MB-436 breast cancer); format: in vivo
Excerpt: (§1) Inhibition of PARylation in the tumor tissues correlated well with tumor drug concentrations of Compound B.

[5] = brain penetrance; details: in vivo
[6] = test system: H209-T small cell lung cancer xenografts; test: H209-T intracranial tumor model; format: in vivo, nude mice; details: single agent, 2.73 mg/kg BID
Excerpt: H209-T is a TMZ-resistant cell line generated by treating H209-xenografted tumors with multiple cycles of TMZ in vivo.

[7] = test system: H209 small cell lung cancer xenograft; details: single agent, 2.73 mg/kg BID x 21 days
[8] = test system: newly diagnosed or recurrent/refractory glioblastoma (GBM); test: dose-escalation/expansion study of Compound B with RT and/or TMZ in GBM (Example 5); format: in vivo, human; details: across study arms, 15 patients
Procedure: This ongoing dose-escalation/expansion study was designed to determine the safety/tolerability and antitumor effects of Compound B (60 mg PO BID) in combination with RT and/or TMZ. The dose-escalation component consists of 3 arms:
(Arm A) Compound B (60 mg BID) at increasing exposures of 2, 4, or 6 weeks in combination with RT for 6 to 7 weeks, in newly diagnosed patients with GBM with unmethylated MGMT promoter (‘unmethylated GBM’)), and after RT is completed, subjects will receive no further study treatment;
(Arm B) Depending on the safety of the Arm A combination, Compound B in combination with RT for 6 to 7 weeks and increasing TMZ doses, in newly diagnosed patients with unmethylated GBM, and after RT is completed, subjects will receive no further study treatment;
(Arm C) Compound B in combination with increasing dose of TMZ administered on Days 1 to 21 of each 28-day cycle, in patients with recurrent/refractory methylated or unmethylated GBM.
In Arm A, Arm B and Arm C: Compound B was administered at the doses of 60 mg BID (PO); Radiation therapy (RT) was administered QD×5 days/week for 6 to 7 weeks with 1.8 to 2 Gy/fraction for a total dose of up to 60 Gy; flat-dosing was used for TMZ, and the first dose level of 40 mg QD corresponds to 23 mg/m^2 assuming an average body surface area of 1.73 m^2. […]

[9] = test system: tumor cell lines with defects of the HR pathway; test: in vitro activity against tumor cell lines with defects of the HR pathway; format: cell-based
Excerpt: as §1

[10] = test system: PARylation; test: PK/PD study, PARylation in MDA-MB-436 breast cancer xenografts; format: in vivo, mice; details: oral administration
Excerpt: as §1

C[C@]12CCCN1CC1=NNC(=O)c3cc(F)cc4[nH]c2c1c34 [Compound A, (R)-2-fluoro-10a-methyl-7,8,9,10,10a,11-hexahydro-5,6,7a,11-tetraazacyclohepta[def]cyclopenta[a]fluoren-4(5H)-one]
PARP1/2 inhibitory activities [1]: highly selective and potent

Cn1ncnc1[C@H]1c2n[nH]c(=O)c3cc(F)cc(c23)N[C@@H]1c1ccc(F)cc1 [talazoparib]
MTD, talazoparib ([2]; plus 37 mg/m^2 of TMZ): 1 mg

Cn1nnc2c(C(N)=O)ncn2c1=O [TMZ, temozolomide]
MTD, TMZ ([2]; with 1 mg talazoparib): 37 mg/m^2 | most common drug-related AE: thrombocytopenia (n pts) ([3]; human, in vivo): 5

C[C@]12CCCN1CC1=NNC(=O)c3cc(F)cc4[nH]c2c1c34 [Compound B, (R)-2-fluoro-10a-methyl-7,8,9,10,10a,11-hexahydro-5,6,7a,11-tetraazacyclohepta[def]cyclopenta[a]fluoren-4(5H)-one sesqui-hydrate]
potency relative to olaparib ([4]; more potent than olaparib): 16 fold | anti-tumor activity ([4]; single agent): strong anti-tumor activity | brain penetrance [5]: significant brain penetrance | effect on tumor growth [6]: no significant effect on tumor growth | effect on tumor growth [7]: no significant effect on tumor growth | Compound B-related AE fatigue (n patients) [8]: 5 | Compound B-related AE nausea (n patients) [8]: 6 | most common drug-related AE: nausea (n pts) ([3]; 16 pts, Compound B 60 mg BID plus TMZ 20-120 mg QD): 6 | plasma exposure ([3]; in combination): consistent with single-agent trials | in vitro activity as a single agent [9]: excellent in vitro activity | inhibition of PARylation in xenografts [10]: time- and dose-dependent inhibition of PARylation

— US20200155567A1, “TREATMENT OF CANCERS USING A COMBINATION COMPRISING PARP INHIBITORS, TEMOZOLOMIDE AND/OR RADIATION THERAPY” (BEIGENE, LTD., priority 2017, published 2020)
